Test results as given in patent US20220340976A1, “RAPID PREDICTION OF DRUG RESPONSIVENESS” (THE BROAD INSTITUTE, INC., priority 2019, published 2022).
“And” between values parts separate entries of the source, which are not always exact repeats. Identical values can stand only once. “Also recorded” adds a separate entry of the source.

How the values were obtained:
[1] = test system: pools of well-characterized cancer cell lines; experiment: MIX-Seq: scRNA-seq transcriptional response profiling of drug-treated cell line pools; format: cell-based, human; conditions: for shared viability-related signature (cell-cycle genes): across compounds, 24 hours post-treatment
Protocol: Cell line pools were made in sets of 25 cell lines. These 25 cell line pools were chosen based on doubling time and were grown in RPMI in the absence of phenol red and with 10% FBS. Cell lines were then washed with 10 mLs of PBS, and trypsinized with 1 mL trypsin which was then removed. Ten mLs of RPMI media were added to the cells post trypsinization and resuspended. Cells were then counted by a Nexcelom cellometer using 10 uL of cell suspension and 10 ul of Trypan blue. Equal numbers of cells per cell line were mixed together and spun down at 1,250 RPM for 5 minutes. Media was aspirated and the cells were resuspended in Sigma Cell Freezing media and frozen in 1 mL aliquots. This process was repeated for all of the 25 cell line pools. For MIX-Seq experiments involving larger pools, multiple 25 cell line pools were thawed in RPMI with 10% FBS, spun down and resuspended in 5 mLs of RPMI media. Cells were then counted and equal numbers were combined together on the day of plating to form larger pools of up to ˜100 cell lines.
For drug treatment experiments, cell line pools were cultured in RPMI containing 10% fetal bovine serum, in the absence of phenol red and penicillin/streptomycin. Cell line pools were validated as Mycoplasma free prior to initiating the experiment. Cell line pools were plated at 200,000 cells per well in 6 well plates containing 2 mL of RPMI culture media described above. […] Cell pools were plated ˜16-20 hours prior to drug treatment. Cells were treated with the described drugs or vehicle (DMSO) with a 0.2% final media DMSO concentration.
Generally cells were harvested after drug treatment using standard cell culture methods. Briefly, after drug treatment cells that were in suspension (presumably containing dead cells from drug treatment) were collected and reserved for addition to the adherent cell fraction. Adherent cells were washed once with 1×PBS, trypsinized in 1 mL trypsin, incubated for 3-7 minutes at 37 C, and then trypsin inactivated with 1 mL growth media. For Cell Hashing, cells were treated with TrypLE Express (ThermoFisher) instead of trypsin to reduce the amount of cell surface proteins digested that may affect the binding of Cell Hashing antibodies.
After trypsinization, adherent and suspension cells were combined for each treatment, pelleted, and resuspended in Cell Capture Buffer (lx PBS with 0.04% BSA). Cells were counted (including trypan blue non-viable cells) and resuspended at a concentration of 1,000 cells per microliter for standard loading on the Chromium Controller (10× Genomics), or at 1,500 cells per microliter for “super loaded” samples. Up to 40,000 cells were loaded per 10× channel for “super loaded” samples, with expected recovery of up to 20,000 cells per channel. Cell suspensions were captured on a 10× Chromium controller using Single Cell 3′ reagent chemistries (either version 2 or and version 3 reagents) FIG. 26.
Sequencing data were processed using 10× Cell Ranger software, run using the Cumulus cloud-based analysis framework (Li et al. 2019). Initial experiments were done with 10× Single Cell 3′ v2 chemistry, and were processed using version 2 of the Cell Ranger software. In later experiments v3 chemistry and the corresponding version 3 of Cell Ranger were used. Reads were aligned to the hg19 reference genome.
To estimate the average transcriptional response of each cell line to a perturbation, the data were first ‘sum-collapsed’—summing read counts across cells for each cell line and treatment condition—to produce a bulk RNA-seq style read counts profile for each sample (Crowell et al. 2019; Lun & Marioni 2017). […]

[2] = test system: pools of cancer cell lines; experiment: Single-cell heterogeneity analysis of drug responses (clustering of scRNA-seq profiles); format: cell-based, human; conditions: of the 24 cell lines in the pool, 24 hours after treatment
Description: Specifically, the edgeR quasi-likelihood approach was used (Lun et al. 2016), following the pipeline in Soneson et al. 2018, with the cell detection rate (the fraction of genes with non-zero reads detected) included as a covariate.
To identify subpopulations of bortezomib treated cells (FIGS. 4D-4F), Seurat's default methods were used to normalize the data, detect variable genes, and compute PCs (using 5000 most variable genes, and 50 PCs). Seurat's default clustering methods were then used to cluster cells for each cell line (using the 20 nearest neighbors, and a clustering resolution parameter of 0.25).
To identify sub-populations of cells from a given cell line in a consistent fashion across baseline and treatment conditions (for analysis and presentation in FIG. 19), the following procedure was employed. After restricting to cells from the target cell line, the scTransform method (Hafemeiester et al. 2019) was used to normalize the data, identify 5,000 variable genes, and regress out experimental condition as a covariate to align clusters across conditions. Seurat's default clustering methods (using the top 10 PCs, 20 nearest neighbors, and a clustering resolution parameter of 0.25) were then used to identify clusters jointly across treated and control cells.

[3] = test system: pools of cancer cell lines; experiment: Cell cycle phase analysis inferred from single-cell transcriptional profiles (MIX-Seq); format: cell-based, human; conditions: for change in proportion of cells in G2/M phase / change in proportion of cells in S phase: 24 hours post-treatment, average weighted by drug sensitivity
Protocol: Cell cycle phase classification was performed using the Seurat function CellCycleScoring, using the S- and G2M-phase gene lists reported in Tirosh et al. 2016. The change in proportion of cells in each phase between treatment and control conditions for each cell line, along with associated confidence intervals, were estimated using the prop.test R function. For FIG. 4C, aggregate scores were computed representing how each compound altered the cell cycle composition by computing weighted averages across cell lines of the change in proportion of cells in each phase, where the weights were determined by the cell lines' measured drug sensitivity (1 minus AUC, bounded between 0 and 1).
For example, characterizing the cell cycle effects of a perturbation yields important information about its MoA. Such measurements have heretofore typically been made using a FACS-based assay, which must be performed on each sample independently and cannot be used to relate cell cycle effects post hoc to other phenotypes without advanced planning. Using MIX-Seq, such measurements can be made in parallel across a pool of cell lines, inferring the cell cycle phase of each cell from its transcriptional profile (Tirosh et al. 2016).
Next, the effects of each compound on the cell cycle were systematically assessed (see Example 1 above). […] Two notable exceptions were the DNA-damaging agent gemcitabine and the CHEK1/2 inhibitor prexasertib.

cancer cell lines = conditions: GDSC and PRISM drug sensitivity data; cited from earlier work
[4] = 24 hours post-treatment (FIGS. 9B, 9C)

Compound: Cc1sc2c(c1C)C(c1ccc(Cl)cc1)=N[C@@H](CC(=O)OC(C)(C)C)c1nnc(C)n1-2 [JQ-1]
- shared viability-related signature (cell-cycle genes) [1]: shared signature was also apparent

Compound: CC(C)C[C@H](NC(=O)[C@H](Cc1ccccc1)NC(=O)c1cnccn1)B(O)O [bortezomib]
- gene sets enriched in across-cell-line average transcriptional response ([1]; 6 hours post-treatment (FIG. 9A)): strong up-regulation of protein folding and heat-shock response pathways
- shared viability-related signature (cell-cycle genes) [1]: shared signature was also apparent
- number of cell lines showing a bimodal response [2]: 10 and 9

Compound: CC(C)(C)c1nc(-c2cccc(NS(=O)(=O)c3c(F)cccc3F)c2F)c(-c2ccnc(N)n2)s1 [dabrafenib]
- variability of transcriptional responses among sensitive cell lines ([1]; BRAF-mutant melanoma cell lines, 24 hour post-treatment): substantial variation

Compound: CO[C@H]1C[C@@H]2CC[C@@H](C)[C@@](O)(O2)C(=O)C(=O)N2CCCC[C@H]2C(=O)O[C@H]([C@H](C)C[C@@H]2CC[C@@H](OCCO)[C@H](OC)C2)CC(=O)[C@H](C)/C=C(\C)[C@@H](O)[C@@H](OC)C(=O)[C@H](C)C[C@H](C)/C=C/C=C/C=C/1C [everolimus]
- gene sets enriched in across-cell-line average transcriptional response [1, 4]: mTOR signaling was the top down-regulated gene set

Compound: Nc1ccn([C@@H]2O[C@H](CO)[C@@H](O)C2(F)F)c(=O)n1 [gemcitabine]
- change in proportion of cells in G2/M phase [3]: decreased the proportion of cells in G2/M
- change in proportion of cells in S phase [3]: increase in S-phase cells
- gene sets enriched in across-cell-line average transcriptional response [1, 4]: altered expression of apoptosis-related genes
- shared viability-related signature (cell-cycle genes) [1]: shared signature was also apparent

Compound: CC1(C)CCC(c2ccc(Cl)cc2)=C(CN2CCN(c3ccc(C(=O)NS(=O)(=O)c4ccc(N[C@H](CCN5CCOCC5)CSc5ccccc5)c(S(=O)(=O)C(F)(F)F)c4)cc3)CC2)C1 [navitoclax]
- long-term viability response across cell lines (cancer cell lines): strong selective viability responses
- robust transcriptional response signature ([1]; 6 and/or 24 hours post-treatment): did not produce strong and/or selective transcriptional responses; also recorded: did not produce robust transcriptional response signatures; also recorded: a robust transcriptional response to navitoclax was not observed

Compound: COc1ccc(C2=NC(c3ccc(Cl)cc3)C(c3ccc(Cl)cc3)N2C(=O)N2CCNC(=O)C2)c(OC(C)C)c1 (centres unmarked) [nutlin]
- change in proportion of cells in G0/G1 ([3]; pool of 24 cell lines, TP53 WT vs TP53 mutant): pronounced G0/G1-arrest phenotype selectively among the TP53 WT cell lines; also recorded: elicits G1-arrest selectively among the TP53 WT cell lines
- average drug-induced changes in gene expression for each cell line ([1]; TP53 WT cell lines (7) in a pool of 24 cell lines): robust response; also recorded: strong gene expression changes
- gene set enrichment analysis of average transcriptional response, down-regulated ([1]; among TP53 WT cell lines): down-regulation of cell cycle processes
- gene set enrichment analysis of average transcriptional response, up-regulated ([1]; among TP53 WT cell lines): clear up-regulation of genes in the TP53 downstream pathway
- average drug-induced changes in gene expression for each cell line ([1]; cell lines harboring TP53 mutations (n=17) in a pool of 24 cell lines): only minimal changes; also recorded: weak gene expression changes

Compound: COc1cccc(OCCCN)c1-c1cc(Nc2cnc(C#N)cn2)n[nH]1 [prexasertib]
- change in proportion of cells in G2/M phase [3]: slightly increased the fraction of G2/M cells
- change in proportion of cells in S phase [3]: decreased the proportion of S-phase cells
- shared viability-related signature (cell-cycle genes) [1]: shared signature was also apparent
